From patent publication US9585958B2, “Compositions and methods for reducing lactate levels” (The Regents of the University of California, priority 2013, dated 2017) come the findings set out here.

Data set [1] is described as follows: Permeation through DMPC liposomes (lactate assay kit). It is filed as in vitro ADME. To be noted: 112 mM. The procedure: It was investigated whether ABA can enhance lactate membrane permeability. Liposomes were generated from 1,2-dimyristoyl-sn-glycero-3-phosphocholine (DMPC), by evaporating 400 μL of 1 mg/mL of DMPC in chloroform in a 100 mL glass flask to completion; and the lipids were re-suspended in 400 μL PBS, thereby forming the liposomes. 50 μL of the liposomes and 50 μL of 112 mM ABA premixed with lactate were then added to the wells of the 96-well plate, and lactate assay kit was performed, according to the manufacturer's instructions. As controls, 50 μL of PBS and 50 μL of 112 mM ABA premixed with lactate were then added to the wells of the 96-well plate and lactate assay kit was performed, according to the manufacturer's instructions. Furthermore, for determining the permeability of lactate through the liposomes, 50 μL of the liposomes and 50 μL of 112 mM lactate were added to the wells of the 96-well plate, and lactate assay kit was performed, according to the manufacturer's instructions. As controls, 50 μL of PBS and 50 μL of 112 mM lactate were added to the wells of the 96-well plate and lactate assay kit was performed, according to the manufacturer's instructions.

A short description of data set [2]: Log D measurements (octanol/PBS, 13C NMR). It is filed as physicochemical. As to conditions: octanol / 1×PBS pH 7.4, 16 h shaking.
Method: 45 μmoles of ABA and 3-^13C-sodium L-lactate dissolved in 500 μL of 1×PBS at pH 7.4 were added to 500 μL of octanol and vigorously shaken for 16 h and then centrifuged for 2 min at 10,000×Gs to extract PBS. A 200 μL of D2O along with 188.7 μmoles (10 μL of 99.8%) of acetonitrile was added to the PBS and a carbon NMR was performed with 16 scans. The area under the curve for the NMR traces obtained was calculated using Mest-ReC software. Similarly, a carbon NMR was performed with 16 scans on a solution containing 45 μmoles of ABA, 45 μmoles of 3-^13C-sodium L-lactate dissolved in 500 μL of 1×PBS at pH 7.4 along with 200 μL of D2O and with 188.7 μmoles (10 μL of 99.8%) of acetonitrile. Area under the curve for the NMR traces obtained was calculated using Mest-ReC software. Acetonitrile peak at δ=1.47 was used as reference.
Furthermore, as controls, 3-^13C-sodium L-lactate dissolved in 500 μL of 1×PBS at pH 7.4 was added to 500 μL of octanol and vigorously shaken for 16 h and then centrifuged for 2 min at 10,000×Gs to extract PBS. A 200 μL of D2O along with 188.7 μmoles (10 μL of 99.8%) of acetonitrile was added to the PBS and a carbon NMR was performed with 16 scans. The area under the curve for the NMR traces obtained was calculated using Mest-ReC software. […] Area under the curve for the NMR traces obtained was calculated using Mest-ReC software.

Take `C[C@H](O)C(=O)[O-].[Na+]` [lactate, sodium L-lactate]: the permeation through liposomes result in data set [1] was “did not permeate through the liposomes”. For the same molecule, the “Log D” value in data set [2] is given as −2.
